Consider 15 molecules from ChEMBL document CHEMBL1149934, “(N-acyl-N-alkyl)glycyl borolysine analogs: A new class of potent thrombin inhibitors” (Bioorg Med Chem Lett, 1996).

One assay concerns the target Plasminogen (Homo sapiens, UniProt P00747). In words: In vitro for inhibition of plasmin.
The target of assay [1] is T1, Prothrombin (Homo sapiens, UniProt P00734). In words: In vitro for inhibition of thrombin.
Assay [2] addresses Tissue-type plasminogen activator (Homo sapiens, UniProt P00750). In words: Compound was tested in vitro for inhibition of tissue plasminogen activator.
The next assay concerns the target Serine protease 1 (Homo sapiens, UniProt P07477). In words: Compound was tested in vitro for inhibition of trypsin.
Assay [3] addresses T1, Prothrombin. Briefly: Compound was tested in vitro for inhibition of thrombin.

Sequence of Serine protease 1 (P07477 whole entry): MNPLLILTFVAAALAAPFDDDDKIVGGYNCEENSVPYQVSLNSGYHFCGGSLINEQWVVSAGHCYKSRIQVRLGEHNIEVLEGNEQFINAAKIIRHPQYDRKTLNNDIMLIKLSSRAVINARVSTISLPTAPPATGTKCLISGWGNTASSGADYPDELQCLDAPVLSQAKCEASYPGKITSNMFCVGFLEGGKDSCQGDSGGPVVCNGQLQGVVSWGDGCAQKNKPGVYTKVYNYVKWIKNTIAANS
Sequence of Tissue-type plasminogen activator (P00750 whole entry): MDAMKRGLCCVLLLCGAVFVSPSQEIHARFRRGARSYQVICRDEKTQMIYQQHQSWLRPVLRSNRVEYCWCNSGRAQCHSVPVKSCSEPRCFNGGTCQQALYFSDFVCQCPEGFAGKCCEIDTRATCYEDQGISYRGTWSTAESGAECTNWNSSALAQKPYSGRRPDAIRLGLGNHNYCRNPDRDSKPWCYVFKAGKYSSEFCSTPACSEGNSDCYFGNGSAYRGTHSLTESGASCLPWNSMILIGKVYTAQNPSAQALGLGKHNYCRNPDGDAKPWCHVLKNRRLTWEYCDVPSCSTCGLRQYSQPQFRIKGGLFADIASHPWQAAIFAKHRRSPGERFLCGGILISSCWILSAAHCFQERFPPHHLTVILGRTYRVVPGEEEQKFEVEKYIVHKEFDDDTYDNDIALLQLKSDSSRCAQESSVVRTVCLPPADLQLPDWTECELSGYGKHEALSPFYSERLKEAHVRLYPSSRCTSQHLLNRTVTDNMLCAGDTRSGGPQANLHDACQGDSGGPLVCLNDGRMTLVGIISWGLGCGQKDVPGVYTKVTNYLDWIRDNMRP
Sequence of Plasminogen (P00747 97-580 limits assumed): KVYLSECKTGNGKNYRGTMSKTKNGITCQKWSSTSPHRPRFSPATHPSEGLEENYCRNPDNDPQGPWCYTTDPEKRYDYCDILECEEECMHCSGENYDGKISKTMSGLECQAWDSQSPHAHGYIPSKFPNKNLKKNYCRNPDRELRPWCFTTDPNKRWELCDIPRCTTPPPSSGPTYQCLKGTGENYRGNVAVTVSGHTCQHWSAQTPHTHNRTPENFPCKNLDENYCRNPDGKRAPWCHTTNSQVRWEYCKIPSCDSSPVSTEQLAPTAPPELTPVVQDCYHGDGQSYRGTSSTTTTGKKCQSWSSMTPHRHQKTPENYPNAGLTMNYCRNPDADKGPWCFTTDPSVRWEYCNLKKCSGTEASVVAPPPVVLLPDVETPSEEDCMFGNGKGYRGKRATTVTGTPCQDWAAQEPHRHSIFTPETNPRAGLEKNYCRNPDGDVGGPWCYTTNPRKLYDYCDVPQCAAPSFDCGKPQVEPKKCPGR
Sequence of Plasminogen (P00747 581-810 limits assumed): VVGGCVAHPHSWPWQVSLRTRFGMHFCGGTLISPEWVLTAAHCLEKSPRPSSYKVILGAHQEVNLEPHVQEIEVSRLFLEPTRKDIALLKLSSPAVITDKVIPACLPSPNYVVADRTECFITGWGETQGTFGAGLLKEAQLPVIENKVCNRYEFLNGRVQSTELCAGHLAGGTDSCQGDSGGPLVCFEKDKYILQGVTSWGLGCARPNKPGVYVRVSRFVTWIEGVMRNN

Take `NCCCC[C@H](NC(=O)CN(C(=O)CCc1ccccc1)c1ccccc1)B(O)O`: the Ki – broadly, the dissociation constant of the complex between target and ligand, obtained from inhibition or displacement – at Plasminogen is 230 nM; on Prothrombin [1], 1.4 nM; in assay [2], 280 nM.

`CN(CC(=O)N[C@@H](CCCCN)B(O)O)C(=O)CCCc1ccccc1` displayed a Ki on Prothrombin [1] of 5.4 nM.

In the case of `NCCCC[C@H](NC(=O)CN(C(=O)CCc1ccccc1)C1CCCCC1)B(O)O`, the Ki on Plasminogen is 250 nM; at Serine protease 1, 8.4 nM; at Prothrombin [1], 4.9 nM; in assay [2], 1100 nM.

Regarding `NCCCC[C@H](NC(=O)CN(Cc1ccccc1)C(=O)CCc1ccccc1)B(O)O`, the Ki on Prothrombin [1] was determined as 4.68 nM.

Take `CC(=O)N[C@H](Cc1ccccc1)C(=O)N1CCC[C@H]1C(=O)N[C@@H](CCCN=C(N)N)B(O)O`: the Ki stood at 5.1 nM on Plasminogen, 0.045 nM at Serine protease 1 and 5.7 nM in assay [2].

`NCCCC[C@H](NC(=O)CNC(=O)CCc1ccccc1)B(O)O`: 90000 nM corresponded to half-maximal inhibition against Prothrombin [3] (IC50).

Regarding `NCCCC[C@H](NC(=O)CN(C(=O)CCc1ccccc1)C1CC1)B(O)O`, the Ki on Plasminogen was determined as 160 nM; at Serine protease 1 it was 1.1 nM; at Prothrombin [1], 0.69 nM; in assay [2], 750 nM.

`CN(CC(=O)N[C@@H](CCCCN)B(O)O)C(=O)Cc1ccccc1` showed a Ki on Prothrombin [1] of 16 nM.

Regarding `CN=C(N)NCCC[C@H](NC(=O)CN(C)C(=O)CCc1ccccc1)B(O)O`, the values for the Ki at Plasminogen, at Serine protease 1 and on Prothrombin [1] were 14000 nM, 18 nM and 2.1 nM, respectively.

On to `CC(C)N(CC(=O)N[C@@H](CCCCN)B(O)O)C(=O)CCc1ccccc1`, for which the Ki on Plasminogen was found to be 140 nM; at Serine protease 1, 3.8 nM; on Prothrombin [1], 1.6 nM; in assay [2] it was 3370 nM.

On to `NCCCC[C@H](NC(=O)CN(CCc1ccccc1)C(=O)CCc1ccccc1)B(O)O`, for which the Ki on Plasminogen is 170 nM; at Serine protease 1, 2.5 nM; on Prothrombin [1] it was 0.42 nM; in assay [2], 680 nM.

Regarding `CN(CC(=O)N[C@@H](CCC/N=C\N)B(O)O)C(=O)CCc1ccccc1`, the Ki is more than 10000 nM on Plasminogen, 21 nM on Serine protease 1, 9.1 nM on Prothrombin [1] and 7000 nM in assay [2].

In the case of `CN(CC(=O)N[C@@H](CCCN=C(N)N)B(O)O)C(=O)CCc1ccccc1`, the Ki at Plasminogen worked out at 460 nM; at Serine protease 1, 0.61 nM; on Prothrombin [1] it was 0.16 nM; in assay [2], 51 nM.

With `CN(CC(=O)N[C@@H](CCCCN)B(O)O)C(=O)c1ccccc1`, the affinity on Prothrombin [1] corresponds to a Ki of 123 nM. That is a sub-micromolar value.

Turning to `CN(CC(=O)N[C@@H](CCCCN)B(O)O)C(=O)CCc1ccccc1`, the Ki stood at 250 nM at Plasminogen, 2.8 nM at Serine protease 1, 1.71 nM on Prothrombin [1] and 3800 nM in assay [2].
